Measurements as given in patent publication EP2033635B1, “Use of phenylbutyric acid or salts thereof for treating pruritus” (Asan Laboratories Company (Cayman) Limited, priority 2007, dated 2009).

Experiments:
Format in all cases: cell-based
Jurkat T cells [1] = test: Flow cytometry of cell proliferation, cytotoxicity, apoptosis and cell cycle in Jurkat T cells
Method: Jurkat T cells were treated in the presence of increasing concentrations of 4-phenylbutyrate, ionomycin, and/or phorbol 12-myristate 13-acetate (PMA) for 24-72 hr at 37°C.

human IL-2 promoter = test: Chromatin immunoprecipitation (ChIP) assay of transcription-factor binding and acetyl H3 at the IL-2 promoter in Jurkat T cells; conditions: 4-phenylbutyrate sodium 1 mM 24 hrs, then ionomycin 1 µM and PMA 10 ng/ml 6 hrs
Method: The induction of multiple cytokine expression depends on the coordinated activation of transcription factors, mostly including NFκB, NF-AT, and AP-1 (Sancho R, et al. J Immunol 172:2341-51, 2004; Li-Weber M, et al. Eur J Immunol 34 :1111-18, 2004). Because induction of cytokines is regulated mainly at the transcriptional level, chromatin immunoprecipitation (ChIP) analysis in Jurkat T cells was performed to determine the binding of NFκB, NF-AT, and AP-1 to IL-2 promoter. Jurkat T cells were nonstimulated or stimulated with ionomycin (1 µM) and PMA (10 ng/ml) for 6 hrs in the absence or presence of pre-incubation of 4-phenylbutyrate sodium (1 mM) for 24 hrs, then formaldehyde crosslinking between protein and DNA and ChIP using anti- NFκB, NF-AT, AP-1, Sp1 or acetyl H3 antibodies (Santa Cruz) were performed. PCR primers were designed to amplify the human IL-2 promoter: F 5'-[…] (-317 to -292 in the IL-2 promoter), R 5'-[…] (+33 to 58). PCR amplifications used a three-step protocol with 90°C (30 s) denaturing temperature, 59°C (45 s) primer annealing temperature, and 72°C (30 s) enzyme reaction temperature for 35 cycles.

Jurkat T cells [2] = test: Real-time PCR gene expression profiling (RT2 Profiler PCR Array Human Th1-Th2-Th3) in Jurkat T cells stimulated with PMA/ionomycin
Method: FIGs. […] Jurkat T cells were pre-incubated with phenylbutyrate (1 mM) for 24 hrs, and then stimulated with ionomycin (1 µM) and PMA (10 ng/ml) for 6 hrs. Using real-time PCR, the expression of a panel of genes related to helper T cells with or without T-cell stimulation and phenylbutyrate treatment was analyzed. The array includes cytokine genes representative of Th1, Th2 and Th3 cells, gene encoding transcriptional factors regulating the expression of cytokines as well as other markers of CD4+ T lymphocytes, genes involved in immune cell activation in the Th1 and Th2 type immune responses, and genes involved in the antimicrobial humoral response. Results are the mean ± SE of three determinations, expressed as the fold induction (observed experimental relative unit/basal control relative unit in the absence of any stimuli or treatment);
Jurkat T-cells were nonstimulated or stimulated with ionomycin (1 µM) and PMA (10 ng/ml) for 6 hrs in the absence or presence of pre-incubation of 4-phenylbutyrate sodium (1 mM) for 24 hrs, RNA was extracted and then RT-PCR was performed for profiling the expression of 84 genes related to Th1-Th2-Th3 responses shown in the gene table (FIG. 2).

[3] = 1 mM for 48 hrs, control versus treated cells, flow cytometry
[4] = PMA/ionomycin-induced Jurkat T-cell activation, result in words
[5] = phenylbutyrate 1 mM 24 hrs, then ionomycin 1 µM + PMA 10 ng/ml 6 hrs, mitogen stimulation alone 2.68

O=C([O-])CCCc1ccccc1.[Na+] [Phenylbutyrate, 4-phenylbutyrate sodium]
apoptosis (Jurkat T cells [1]; [3]): no significant differences | cell proliferation (Jurkat T cells [1]; [3]): no significant differences | cytotoxicity (Jurkat T cells [1]; [3]): no significant differences | entry of the cells into the S phase of the cell cycle (Jurkat T cells [1]; pre-treatment 1 mM for 24 hrs, 48 hrs after stimulation with ionomycin 1 µM plus PMA 10 ng/ml): almost completely prevented | DNA binding of AP-1 to IL-2 promoter (human IL-2 promoter): decreases | DNA binding of NF-AT to IL-2 promoter (human IL-2 promoter): decreases | DNA binding of NFκB to IL-2 promoter (human IL-2 promoter): decreases | chromatin structure, acetyl H3 status (human IL-2 promoter): altering acetyl H3 status | expression of SOCS1, a suppressor of cytokine signaling (Jurkat T cells [2]; [4]): upregulates more expression | induction of Th1 and Th2 cytokines and related genes, T-cell activation markers, immune response genes (Jurkat T cells [2]; [4]): completely suppresses or significantly decreases | fold induction of CCL7 (Jurkat T cells [2]; [5]): 1.04 fold | fold induction of CCL11 (Jurkat T cells [2]; [5]): 0.98 fold | fold induction of CCR5 (Jurkat T cells [2]; [5]): 0.98 fold | fold induction of IL6 (Jurkat T cells [2]; [5]): 0.98 fold | fold induction of IL6R (Jurkat T cells [2]; [5]): 0.98 fold | fold induction of IL9 (Jurkat T cells [2]; [5]): 0.98 fold | fold induction of IL12B (Jurkat T cells [2]; [5]): 0.98 fold | fold induction of IL12RB2 (Jurkat T cells [2]; [5]): 0.98 fold | fold induction of IL13 (Jurkat T cells [2]; [5]): 0.98 fold | fold induction of IL13RA1 (Jurkat T cells [2]; [5]): 0.98 fold | fold induction of IL18 (Jurkat T cells [2]; [5]): 0.98 fold | fold induction of MAF (Jurkat T cells [2]; [5]): 0.98 fold | fold induction of SFTPD (Jurkat T cells [2]; [5]): 0.98 fold | fold induction of TLR4 (Jurkat T cells [2]; [5]): 0.98 fold | fold induction of LAT (Jurkat T cells [2]; phenylbutyrate 1 mM 24 hrs, then ionomycin 1 µM + PMA 10 ng/ml 6 hrs, mitogen stimulation alone 3.12): 1.57 fold | fold induction of CCR2 (Jurkat T cells [2]; phenylbutyrate 1 mM 24 hrs, then ionomycin 1 µM + PMA 10 ng/ml 6 hrs, mitogen stimulation alone 4.20): 0.84 fold | fold induction of JAK2 (Jurkat T cells [2]; phenylbutyrate 1 mM 24 hrs, then ionomycin 1 µM + PMA 10 ng/ml 6 hrs, mitogen stimulation alone 4.72): 2.27 fold | fold induction of SOCS1 (Jurkat T cells [2]; phenylbutyrate 1 mM 24 hrs, then ionomycin 1 µM + PMA 10 ng/ml 6 hrs, mitogen stimulation alone 4.82): 8.59 fold | fold induction of IRF1 (Jurkat T cells [2]; phenylbutyrate 1 mM 24 hrs, then ionomycin 1 µM + PMA 10 ng/ml 6 hrs, mitogen stimulation alone 5.86): 1.7 fold | fold induction of CCR4 (Jurkat T cells [2]; phenylbutyrate 1 mM 24 hrs, then ionomycin 1 µM + PMA 10 ng/ml 6 hrs, mitogen stimulation alone 7.41): 1.93 fold | fold induction of STAT4 (Jurkat T cells [2]; phenylbutyrate 1 mM 24 hrs, then ionomycin 1 µM + PMA 10 ng/ml 6 hrs, mitogen stimulation alone 7.89): 3.32 fold | fold induction of IL1R1 (Jurkat T cells [2]; phenylbutyrate 1 mM 24 hrs, then ionomycin 1 µM + PMA 10 ng/ml 6 hrs, mitogen stimulation alone 11.31): 3.92 fold | fold induction of IL18R1 (Jurkat T cells [2]; phenylbutyrate 1 mM 24 hrs, then ionomycin 1 µM + PMA 10 ng/ml 6 hrs, mitogen stimulation alone 19.97): 0.98 fold | fold induction of IRF4 (Jurkat T cells [2]; phenylbutyrate 1 mM 24 hrs, then ionomycin 1 µM + PMA 10 ng/ml 6 hrs, mitogen stimulation alone 26.17): 16.50 fold | fold induction of TLR6 (Jurkat T cells [2]; phenylbutyrate 1 mM 24 hrs, then ionomycin 1 µM + PMA 10 ng/ml 6 hrs, mitogen stimulation alone 29.04): 10.43 fold | fold induction of IL4R (Jurkat T cells [2]; phenylbutyrate 1 mM 24 hrs, then ionomycin 1 µM + PMA 10 ng/ml 6 hrs, mitogen stimulation alone 42.81): 9.53 fold | fold induction of BCL3 (Jurkat T cells [2]; phenylbutyrate 1 mM 24 hrs, then ionomycin 1 µM + PMA 10 ng/ml 6 hrs, mitogen stimulation alone 58.08): 19.73 fold | fold induction of CD69 (Jurkat T cells [2]; phenylbutyrate 1 mM 24 hrs, then ionomycin 1 µM + PMA 10 ng/ml 6 hrs, mitogen stimulation alone 87.43): 48.57 fold | fold induction of TNFRSF9 (Jurkat T cells [2]; phenylbutyrate 1 mM 24 hrs, then ionomycin 1 µM + PMA 10 ng/ml 6 hrs, mitogen stimulation alone 89.26): 13.01 fold | fold induction of IFN-gamma (Jurkat T cells [2]; phenylbutyrate 1 mM 24 hrs, then ionomycin 1 µM + PMA 10 ng/ml 6 hrs, mitogen stimulation alone 126.24): 99.18 fold | fold induction of IL2RA (Jurkat T cells [2]; phenylbutyrate 1 mM 24 hrs, then ionomycin 1 µM + PMA 10 ng/ml 6 hrs, mitogen stimulation alone 151.17): 64.98 fold | fold induction of CSF2 (Jurkat T cells [2]; phenylbutyrate 1 mM 24 hrs, then ionomycin 1 µM + PMA 10 ng/ml 6 hrs, mitogen stimulation alone 229.13): 88.77 fold | fold induction of IL2 (Jurkat T cells [2]; phenylbutyrate 1 mM 24 hrs, then ionomycin 1 µM + PMA 10 ng/ml 6 hrs, mitogen stimulation alone 831.75): 304.86 fold
